The text below walks through data of patent publication US7981878B2, “Tumor treatment with gliotoxin derivatives” (priority 2005, dated 2011).

One data set concerns 518A2 (melanoma). Briefly: Apoptosis flow cytometry (Annexin V / 7-AAD) 518A2. In kind it is cell-based, human. Conditions: 518A2, 200 nM gliotoxin, 24 h. The protocol:
(§1) FIG. 10 a-b: Effects of gliotoxin on Notch2 regulation and apoptosis. The melanoma cell line 518A2 (A) and the pancreatic cancer cell line Panc-1 (B) were treated with 200 nM gliotoxin or vehicle control for 24 h Notch2 activity was analysed by band shift assay. Apoptosis was measured as annexin V and 7-AAD double positivity by FACS. Data are given as percentage of apoptotic cells ±standard deviation.
Tumour cells were seeded at a density of 50,000 cells/well in 6 well plates. 24 h after seeding, medium containing gliotoxin was added to yield desired concentrations of gliotoxin. After further 24 h cells were harvested, counted and washed twice with PBS. Then, 100,000 cells were resuspended in 100 μl binding buffer and stained with Annexin V-PE and 7-AAD (both Becton Dickinson, N.J., USA) according to manufacturer's recommendations. After 20 minutes incubation time at room temperature in the dark, 400 μl binding buffer was added and immediately analyzed on a FACScalibur flow cytometer using CellQuest software (both Becton Dickinson, N.J., USA)

For data set [1] the following is noted: mice and rats; cited from earlier work.
The subject of a further data set is mouse cell line P388. Conditions: cited from earlier work.
The subject of a further data set is Notch2. As to the kind of experiment: Notch2 activity band shift assay in 518A2. The settings on record: 518A2, 200 nM gliotoxin, maximum at 24 h. The data set is classed as cell-based, human. The method, then:
as §1
500,000 cells were seeded on 12 cm^2 plates for 24 h and then treated with 200 nM gliotoxin. At the time points as indicated cells were harvested and immediately frozen at −80° C. The band shift assay was performed as described for B-CLL.

In another data set the test system is Jurkat (T-ALL). As to the kind of experiment: Apoptosis FACS in leukaemia cell line Jurkat. In kind it is cell-based. The settings on record: 0.2 μM gliotoxin, 24 h. The method, then: (§2) FIG. 7: (A) The apoptotic activity of gliotoxin on further B-CLL patient samples (CLL4-CLL8) is illustrated. The (non-Notch2-associated) leukaemia cell lines (or the leukaemia cell lines not characterised by ligand-independent Notch2 fragments) Jurkat (T-ALL), SH1 (hairy cell carcinoma), RL-7 and K562 (CML) are resistant to a treatment with 0.2 μM (corresponding to 60 ng/ml) of gliotoxin. Cells were incubated for 24 h+/−gliotoxin, and the percentage of apoptotic cells (probidium-iodide+/annexinV+) was determined by means of FACS analysis. In none of the 4 non-Notch2-associated cell lines indicated, the application of 0.2 μM of gliotoxin led to a significant induction of apoptosis within 24 hours. The cytotoxic effect of Gliotoxin correlates with the Notch2 activity in leukemias. (B) Corresponding EMSA showing the activity of Notch2 in B-CLL cells and in leukemic cell lines (Jurkat, SH1, RL7, and K562).

The test system of the next data set is K562 (CML). As to the kind of experiment: Apoptosis FACS in leukaemia cell line K562. In kind it is cell-based. Conditions: K562, 0.2 μM gliotoxin, 24 h. The method, then:
as §2

Data set [2] concerns Meljuso-Bcl-2 (+) (Bcl-2 over expressing melanoma cell line). Briefly: Cell count analysis Meljuso-Bcl-2 (+). In kind it is cell-based, human. The method, then:
(§3) FIG. 8 a-d: Effects of gliotoxin on cell counts of various human tumour cell lines in vitro. Cell counts of a) hepatocellular carcinoma cell lines HepG2, Huh7, SNU398, Hep3b, HeLa (cervix) and the cholangiocarcinoma cell line NEC as well as b) the pancreatic cancer cell line Panc-1 and the melanoma cell lines d) MelJuso, Meljuso-Bcl-2 (+) and 607B after 72 h treatment with 200 nM gliotoxin; c-d) Cell count dose range experiments with c) pancreatic carcinoma cell lines Panc-1 and MiaPaCa as well as melanoma cell lines MelJuso, 518A2 and 607B using 25, 50 100 and 200 nM gliotoxin for 24 h. All data are given relative to control ±standard deviation.
(§4) Tumour cells were seeded at a density of 10,000 cells/well in 24-well plates. 24 h after seeding, medium containing gliotoxin was added to yield desired concentrations of gliotoxin. At time points indicated, culture medium was removed by suction. Adherent cells were washed with DPBS (Cambrex, Verviers, Belgium) and incubated with trypsin (Gibco) at 37° C. Detached cells were transferred to test tubes containing Cellpack isotonic fluid (Sysmex Europe, Bornbarch, Germany) and counted with a Coulter Z1 electronic cell counter (Beckman Coulter, Bedford, UK).

Data set [3] has as its system HeLa cells (cervix carcinoma). Briefly: Cell count analysis HeLa. The data set is classed as cell-based, human. Conditions: 0.2 μM gliotoxin, within 72 hours. The method, then:
as §3, §4

In data set [4] the test system is Panc-1 (pancreas carcinoma). Briefly: Cell count analysis Panc-1. In kind it is cell-based, human. The method, then: as §3, §4

Take `CN1C(=O)[C@]23CC4=CC=C[C@H](O)[C@H]4N2C(=O)[C@@]1(CO)SS3` [gliotoxin, [3R-(3α,5aβ,6β,10aα)]-2,3,5a,6-tetrahydro-6-hydroxy-3-(hydroxymethyl)-2-methyl-10H-3,10a-epi-dithiopyrazino[1,2-a]indol-1,4-dion]: the “apoptotic cells (annexin V and 7-AAD double positive)” value in the data set on 518A2 (melanoma) came to 92%. For the same compound, the LD50 (in general, the dose expected to kill half of the subjects tested) in data set [1] is 25 to 50 mg/kg. The “IC50 with regard to cell viability” value in the data set on mouse cell line P388 is 5,8 ng/ml. Besides, the “Notch-2 activity (band shift assay)” value in the data set on Notch2 is “time dependent down regulation”. Besides, the “induction of apoptosis (probidium-iodide+/annexinV+)” value with Jurkat (T-ALL) and in the data set with K562 (CML) was “resistant” in each case. For the same compound, the response in data set [2] (MelJuso +BCL2, 0.2 μM (60 ng/ml)) is reported as about 100%; in data set [4] (Panc-1, 0.2 μM (60 ng/ml)), about 100%. Moreover, the cell count decrease in data set [2] (Meljuso-Bcl-2 (+), 200 nM gliotoxin, 72 h) is 94%. For the same compound, the “effect on the cell count” value in data set [3] was “no significant effect”. The “effect on cell count” value in data set [4] (Panc-1, 200 nM gliotoxin, 72 h) was “very effective”. For the same compound, the “cytotoxicity in dose range experiment (cell count)” value in data set [4] (Panc-1, 25, 50, 100 and 200 nM, 24 h) is “clear dose dependent cytotoxicity”.
